Experimental data: US20240425512A1, “NITROGEN-CONTAINING HETEROCYCLIC COMPOUND, PHARMACEUTICAL COMPOSITION THEREOF AND APPLICATION THEREOF” (280 Bio, Inc., priority 2023, published 2024)
Read-outs that look alike come from different tables or passages of the source.

Assays:
[1] = test system: LS513 colon cancer cell with KRAS G12D mutation; experiment: Proliferation inhibition on RAS cell lines measured by CTG, LS513; format: cell-based; conditions: LS513 cells, incubated for 6 days, CellTiter Glo
Description: NCI-H358 is a human non-small cell lung cancer cell line with KRAS G12C mutation; AGS is a gastric cancer cell line with KRAS G12D mutation; SW620 is a colon cancer cell with KRAS G12V mutation; NCI-H460 is a non-small cell lung cancer cell with KRAS Q61H mutation; MKN1 is a wild-type gastric cancer cell with KRAS-amplified; LS513 is a colon cancer cell with KRAS G12D mutation; LoVo is a colon cancer cell with KRAS G13D mutation; NCI-H441 is a lung cancer cell with KRAS G12V mutation, and Capan-2 is a pancreatic cancer cell with KRAS G12V mutation.
(§1) The proliferation inhibitory effect of the compounds on various mutations was evaluated by determining the proliferation inhibitory activity of the compounds on these cell lines.
(§2) The assay was conducted on either 384-well plates or 96-well plates. The procedures are as follows:
(§3) The cell suspensions were added to 384- or 96-well plates (384-well plate: 50 μL; 96-well plate: 100 μL) except for peripheral wells. The plates were placed in a carbon dioxide incubator overnight. NCI-H358, AGS, NCI-H460, MKN-1, LS513, LoVo, and NCI-H441 were placed in a 5%, 370 carbon dioxide incubator overnight, and SW620 was placed in a 0%, 370 carbon dioxide incubator overnight. The HPD300 micro-dosing instrument was used to add the corresponding concentration of compound to each well (9-10 concentration gradients of compound were obtained by 3-fold dilution). Cell plates were incubated in a carbon dioxide incubator for 5-6 days. NCI-H358, AGS, NCI-H460 and MKN-1 were incubated at 5%, 37° incubator and SW620 was incubated at 0%, 370 incubator. On the day of plate measurement, the 384- or 96-well plates were first equilibrated at room temperature for 10-30 min, then CellTiter Glo reagent (384-well plate: 25 μL; 96-well plate: 100 μL) was added to the 384- or 96-well plate, shaken for 10 min away from light, and incubated for 10 min. The plates were placed into Victor NIVO or ENVIDION reader plates, and XLFit was utilized to plot the pharmacodynamic inhibition curve and calculate the IC50 value. “IC50>10 μM” is denoted by “*”, “10 μM≥IC50≥1 μM” is denoted by “**”, and “1 μM≥IC50>100 nM” is denoted by “***”, “IC50<100 nM” is denoted by “****”

[2] = test system: GP2D cells; experiment: Proliferation inhibition on RAS cell lines measured by CTG, GP2D; format: cell-based; conditions: CellTiter Glo
Description: as §1, §2, §3

[3] = Homo sapiens, LS-513, 144 h, Table 2, read-out: IC50 (LS513^f)
[4] = 144 h, Table 2, incubated for 6 days, read-out: IC50 (GP2D^j)
[5] = Homo sapiens, LS-513, 144 h, Table 3, read-out: IC50 (LS513^k)
[6] = 144 h, Table 3, incubated for 6 days, read-out: IC50 (GP2D^l)
[7] = Table 3, read-out: IC50 (LS513^k)
[8] = Table 3, incubated for 6 days, read-out: IC50 (GP2D^l)

Row | SMILES | IC50 [1, 5] | IC50 [2, 6] | also measured
1 | C#Cc1c(F)ccc2cc(O)cc(-c3ncc4c(N5CCCCCN5)nc(OCC56CCCN5C(COc5cc(C(F)(F)F)cnn5)CC6)nc4c3F)c12 (centres unmarked) [Compound 58] | – | – | IC50 [1, 3]: < 100 nM; IC50 [2, 4]: < 100 nM
2 | C#Cc1c(F)ccc2cc(O)cc(-c3ncc4c(N5CCCCCN5)nc(OCC56CCCN5C(COc5cc(C(F)(F)F)ncn5)CC6)nc4c3F)c12 (centres unmarked) [Compound 60] | – | – | IC50 [1, 3]: < 100 nM; IC50 [2, 4]: < 100 nM
3 | C#Cc1c(F)ccc2c(F)c(O)cc(-c3ncc4c(N5CCCCCN5)nc(OC[C@@]56CCCN5C[C@H](F)C6)nc4c3F)c12 [Compound 64] | – | – | IC50 [1, 3]: < 100 nM; IC50 [2, 4]: < 100 nM
4 | C#Cc1c(F)ccc2cc(O)cc(-c3ncc4c(N5CCCCCN5C(=O)C(F)(F)F)nc(OC[C@@]56CCCN5C[C@H](F)C6)nc4c3F)c12 [Compound 68] | – | – | IC50 [1, 3]: < 100 nM; IC50 [2, 4]: < 100 nM
5 | C#Cc1c(F)ccc2cc(OC(=O)NCCCCCCCC)cc(-c3ncc4c(N5CCCCCN5)nc(OC[C@@]56CCCN5C[C@H](F)C6)nc4c3F)c12 [Compound 69] | – | – | IC50 [1, 3]: < 100 nM; IC50 [2, 4]: < 100 nM
6 | C#Cc1c(F)ccc2cc(O)cc(-c3ncc4c(N5CCCCCN5)nc(OC[C@@H]5CCCN5C)nc4c3F)c12 [Compound 72] | – | – | IC50 [1, 3]: < 100 nM; IC50 [2, 4]: < 100 nM
7 | C#Cc1c(F)ccc2cc(OC(=O)N3CCC(N4CCCCC4)CC3)cc(-c3ncc4c(N5CCCCCN5)nc(OC[C@@]56CCCN5C[C@H](F)C6)nc4c3F)c12 [Compound 73] | 100 to 1000 nM | 100 to 1000 nM | –
8 | C#Cc1c(F)ccc2cc(OC(=O)N3CCC[C@H]3COC)cc(-c3ncc4c(N5CCCCCN5)nc(OC[C@@]56CCCN5C[C@H](F)C6)nc4c3F)c12 [Compound 74] | < 100 nM | < 100 nM | –
9 | Nc1cc(Cl)c(C(F)(F)F)c(-c2ncc3c(N4CCCCCN4)nc(OC[C@@]45CCCN4C[C@H](F)C5)nc3c2F)c1 [Compound 81] | – | – | IC50 [1, 3]: < 100 nM; IC50 [2, 4]: 100 to 1000 nM
10 | [2H]C([2H])(Oc1nc(N2CCCCCN2)c2cnc(-c3cc(O)cc4ccc(F)c(C#C)c34)c(F)c2n1)[C@@]12CCCN1C[C@H](F)C2 [Compound 82] | – | – | IC50 [1, 3]: < 100 nM; IC50 [2, 4]: < 100 nM
11 | C#Cc1c(F)ccc2cc(O)cc(-c3ncc4c(N5CCCCCN5)nc(OC[C@]56CCCN5[C@H](c5cc(F)c(F)c(F)c5)CC6)nc4c3F)c12 [Compound 85] | – | – | IC50 [1, 3]: 100 to 1000 nM; IC50 [2, 4]: 100 to 1000 nM
12 | C#Cc1c(F)ccc2cc(OC(=O)N3CCOCC3)cc(-c3ncc4c(N5CCCCCN5)nc(OC[C@@]56CCCN5C[C@H](F)C6)nc4c3F)c12 [Compound 90] | < 100 nM | < 100 nM | –
13 | C#Cc1c(F)ccc2cc(OC(=O)NCCOCCOC)cc(-c3ncc4c(N5CCCCCN5)nc(OC[C@@]56CCCN5C[C@H](F)C6)nc4c3F)c12 [Compound 92] | < 100 nM | < 100 nM | –
14 | C#Cc1c(F)ccc2cc(OC(=O)NCCOC)cc(-c3ncc4c(N5CCCCCN5)nc(OC[C@@]56CCCN5C[C@H](F)C6)nc4c3F)c12 [Compound 93] | < 100 nM | < 100 nM | –
15 | C#Cc1c(F)ccc2cc(OC(=O)NCCCC)cc(-c3ncc4c(N5CCCCCN5)nc(OC[C@@]56CCCN5C[C@H](F)C6)nc4c3F)c12 [Compound 94] | < 100 nM | < 100 nM | –
16 | C#Cc1c(F)ccc2cc(OC(=O)[C@@H](NC(=O)OC(C)(C)C)C(C)C)cc(-c3ncc4c(N5CCCCCN5)nc(OC[C@@]56CCCN5C[C@H](F)C6)nc4c3F)c12 [Compound 95] | – | – | IC50 [1, 7]: < 100 nM; IC50 [2, 8]: < 100 nM
17 | C#Cc1c(F)ccc2cc(OC(=O)N[C@H](C(=O)O)[C@@H](C)CC)cc(-c3ncc4c(N5CCCCCN5)nc(OC[C@@]56CCCN5C[C@H](F)C6)nc4c3F)c12 [Compound 96] | – | – | IC50 [1, 7]: < 100 nM; IC50 [2, 8]: < 100 nM
18 | C#Cc1c(F)ccc2cc(OC(=O)N(CCOC)CCOC)cc(-c3ncc4c(N5CCCCCN5)nc(OC[C@@]56CCCN5C[C@H](F)C6)nc4c3F)c12 [Compound 98] | < 100 nM | < 100 nM | –
19 | C#Cc1c(F)ccc2cc(OC(=O)N3CCCCC3)cc(-c3ncc4c(N5CCCCCN5)nc(OC[C@@]56CCCN5C[C@H](F)C6)nc4c3F)c12 [Compound 99] | < 100 nM | < 100 nM | –
20 | C#Cc1c(F)ccc2cc(OC(=O)NCCCCCCCCCCCCCCCC)cc(-c3ncc4c(N5CCCCCN5)nc(OC[C@@]56CCCN5C[C@H](F)C6)nc4c3F)c12 [Compound 101] | < 100 nM | < 100 nM | –

Row | SMILES | IC50 [1, 5] | IC50 [2, 6] | also measured
21 | C#Cc1c(F)ccc2cc(OC(=O)COCCOCCOCCOC)cc(-c3ncc4c(N5CCCCCN5)nc(OC[C@@]56CCCN5C[C@H](F)C6)nc4c3F)c12 [Compound 102] | – | – | IC50 [1, 7]: < 100 nM; IC50 [2, 8]: < 100 nM
22 | C#Cc1c(F)ccc2cc(O)cc(-c3ncc4c(N5CCCCCN5)nc(OC[C@@]56CC[C@H](c7cc(F)c(F)c(F)c7)N5C[C@H](F)C6)nc4c3F)c12 [Compound 103] | – | – | IC50 [1, 7]: < 100 nM; IC50 [2, 8]: < 100 nM
23 | C#Cc1c(F)ccc2cc(O)cc(-c3ncc4c(N5CCCCCN5)nc(OCC5(CN6CCC(=CF)CC6)CC5)nc4c3F)c12 [Compound 106] | < 100 nM | < 100 nM | –
24 | C#Cc1c(F)ccc2cc(OC(=O)N3CCCC3)cc(-c3ncc4c(N5CCCCCN5)nc(OC[C@@]56CCCN5C[C@H](F)C6)nc4c3F)c12 [Compound 111] | – | < 100 nM | –
25 | C#Cc1c(F)ccc2cc(O)cc(-c3ncc4c(N5CCCCCN5)nc(OC[C@@]56CC[C@H](c7cc(F)c(C(F)(F)F)c(F)c7)N5C[C@H](F)C6)nc4c3F)c12 [Compound 117] | 100 to 1000 nM | 100 to 1000 nM | –
26 | C#Cc1c(F)ccc2cc(O)cc(-c3ncc4c(N5CCCCCN5)nc(OC[C@@]56CC[C@H](c7ccc(C(F)(F)F)c(F)c7)N5C[C@H](F)C6)nc4c3F)c12 [Compound 118] | 100 to 1000 nM | 100 to 1000 nM | –
27 | C#Cc1c(F)ccc2cc(O)cc(-c3ncc4c(N5CCCCCN5)nc(OC[C@@]56CC[C@H](c7ccc(OC(F)(F)F)cc7)N5C[C@H](F)C6)nc4c3F)c12 [Compound 121] | 100 to 1000 nM | 100 to 1000 nM | –
28 | CCc1c(F)ccc2c(F)c(O)cc(-c3ncc4c(N5CCCCCN5)nc(OC[C@@]56CCCN5C[C@H](F)C6)nc4c3F)c12 [Compound 125] | – | – | IC50 [1, 7]: 100 to 1000 nM; IC50 [2, 8]: 100 to 1000 nM
29 | C#Cc1c(F)ccc2cc(OC(=O)c3cc(F)c(F)c(F)c3)cc(-c3ncc4c(N5CCCCCN5)nc(OC[C@@]56CCCN5C[C@H](F)C6)nc4c3F)c12 [Compound 126] | – | – | IC50 [1, 7]: < 100 nM; IC50 [2, 8]: < 100 nM
30 | C#Cc1c(F)ccc2cc(O)cc(-c3ncc4c(N5CCCCCN5)nc(OCC5(CN6CCN(c7cc(F)c(F)c(F)c7)CC6)CC5)nc4c3F)c12 [Compound 130] | – | – | IC50 [2, 8]: 100 to 1000 nM
31 | C#Cc1c(F)ccc2cc(N)cc(-c3c(F)cc4c(N5CCCCCN5)nc(OC[C@@]56CCCN5C[C@H](F)C6)nc4c3F)c12 [Compound 131] | – | – | IC50 [1, 7]: 100 to 1000 nM; IC50 [2, 8]: 100 to 1000 nM
32 | C#Cc1c(F)ccc2cc(OC(=O)NCCCCCCCCCCCC)cc(-c3ncc4c(N5CCCCCN5)nc(OC[C@@]56CCCN5C[C@H](F)C6)nc4c3F)c12 [Compound 133] | < 100 nM | < 100 nM | –
33 | CCc1c(F)ccc2cc(N)cc(-c3c(Cl)cc4c(N5CCCCCN5)nc(OC[C@@]56CCCN5C[C@H](F)C6)nc4c3F)c12 [Compound 134] | 100 to 1000 nM | 1000 to 10000 nM | –
34 | C#Cc1c(F)ccc2cc(O)cc(-c3ncc4c(N5CCCCCN5)nc(OCC56COC(C5)C6)nc4c3F)c12 [Compound 137] | 100 to 1000 nM | 100 to 1000 nM | –
35 | C#Cc1c(F)ccc2cc(O)cc(-c3ncc4c(N5CCCCCN5)nc(OCC5CN(c6nccn6C)C5)nc4c3F)c12 [Compound 138] | – | 100 to 1000 nM | –
36 | C#Cc1c(F)ccc2cc(OCOC(=O)N(C)C)cc(-c3ncc4c(N5CCCCCN5)nc(OC[C@@]56CCCN5C[C@H](F)C6)nc4c3F)c12 [Compound 145] | 100 to 1000 nM | 100 to 1000 nM | –
37 | C#Cc1c(F)ccc2cc(O)cc(-c3ncc4c(N5CCCCCN5)nc(OCC5(C)C(C)CCN5CC=C)nc4c3F)c12 (centres unmarked) [Compound 148] | – | < 100 nM | –
38 | C#Cc1c(F)ccc2cc(O)cc(-c3ncc4c(N5CCCCCN5)nc(OCC5(C)CN(C)CCC5C(F)F)nc4c3F)c12 (centres unmarked) [Compound 149] | < 100 nM | < 100 nM | –
39 | C#Cc1c(F)ccc2cc(O)cc(-c3ncc4c(N5CCCCCN5)nc(OCC5(C)CN(C)CCC5CF)nc4c3F)c12 (centres unmarked) [Compound 150] | < 100 nM | < 100 nM | –
